Assay [1] concerns murine model of schizophrenia (ketamine-injected female ICR pups). Kind of assay: Pre-pulse inhibition (PPI) in ketamine-injected pups, murine model of schizophrenia. The format is in vivo, mouse. The note with it: Example 6, intraperitoneal 12 days course. On the procedure: Prepulse inhibition (PPI) test was conducted in startle device (Hamilton Kinder, Poway, Calif.) that consists of a plexiglas cylinder (10×10×5 cm) adapted for mouse size in order to restrict a mouse to stand up on its hind legs and enclosed in a ventilated sound attenuated compartment with a high-frequency loudspeaker producing all acoustic stimuli. The background noise was 65 dB. Movements within the cylinder were detected and transduced by a piezoelectric platform and recorded on a computer. Each trial was initiated with 5 minutes acclimation period followed by five startle pulse alone (ASR) successive testing trials and finishing with final five startle pulses alone. Auditory testing included startle pulse alone (ASR, 120 dB/40 msec) plus three different prepulse sessions in which either 20-msec-long 70, 74 and 82 dB stimuli were preceded the 120 dB pulse by 100 msec, with the alternate background noise measurement set as the baseline movements in the cylinder. All trials followed in a pseudo-random order and the average inter-trial interval (ITI) was […]. PPI was defined as the percentage of the decreased in the ratio between the startle magnitude in the presence of the prepulse and the magnitude in the absence of the prepulse (100−(100× magnitude on prepulse+pulse trial/magnitude on pulse trial)). […]

Assay [2] has as its system cell suspension of rat neonatal brain tissue. Kind of assay: Neurosphere growth in conditioned medium of pre-treated MSC cultures (neurogenic potential in vitro). Type of assay: cell-based.
Protocol: 70-80% confluent cultures of bone marrow derived MSCs were cultured in vitro in Dulbecco's modified Eagle's medium (DMEM) without Fetal Bovine Serum (FBS) with and supplemented with the addition of one of the following compounds: None, LiCl (2 mM), PACAP27 (20 nM) or DHEA (1 mM). After 3 days medium was changed with fresh ingredients and cultures were allowed to grow for an additional 24 hours. After 24 hours plates were washed twice with PBS and conditioning medium (C.M.) containing none of the above compounds was placed for additional 24 hours. Conditioned medium harvested from these cultures after 24 hours was filtered in 0.2 um filter supplemented with 1% B27 nutrients mix and used as culture medium for a cell suspension of rat neonatal brain tissue in 24 well plates (10^4 cells/well). […]
The number of developing neurospheres in each conditioned medium type was counted after 5 days of culture and provided an indication of the neurogenic potential of the MSCs culture from which the CM was harvested. […]
The number of developing neurospheres in each conditioned medium type was counted and provided an indication of the neurogenic potential of the MSCs culture from which the C.M. was harvested.

We go through three molecules from patent US20140105871A1, “Use Of Mesenchymal Stem Cells For The Improvement Of Affective And Cognitive Function” (priority 2011, published 2014).

Consider `CN1CCN(C2=Nc3cc(Cl)ccc3Nc3ccccc32)CC1` [Clozapine, clozapine], for which the “PPI vs Ket control” value in assay [1] (2.5 months after the treatment course ended, FIG. 17) is given as “no significant effect”; in assay [1] (6 weeks after the course ended, FIG. 16), “no significant effect”.

With `[Cl-].[Li+]` [LiCl, lithium chloride], the “neurogenic activity of the MSCs, in vitro” value in assay [2] (incubation of MSCs in culture with the agent) is recorded as “enhanced the neurogenic activity”.

For “HSDGIFTDSYSRYRKQMAVKKYLAAVL [PACAP (P27), fragment of 27 amino acid residues corresponding to amino acids 132-158 of human PACAP]”, in assay [2] (C.M. of MSC cultures treated with the agent (PACAP27 20 nM, DHEA 1 mM) vs non-treated cultures (C.M. alone), FIG. 2), the “number of developing neurospheres” value is recorded as “clear advantage”.
